Measured values: patent US5550138A, “Condensed thiadiazole derivative, method of its production, and use thereof” (Takeda Chemical Industries, Ltd., priority 1992, dated 1996)

Experiments:
endothelin receptor = test: Inhibition of endothelin-1 binding to endothelin receptor (125I-endothelin binding test, rabbit ventricular microsomal fraction); conditions: 125I-endothelin-1 6×10^-11 M, 37° C., 90 minutes
Description: Inhibition of endothelin-1 binding to endothelin receptor
(a) Preparation of rabbit ventricular microsomal fraction
Rabbit ventricular microsomal fraction was prepared by the method described in Methods in Enzymology, 109, 513 with a slight modification. The cardiac ventricular muscle excised from a 2 to 2.5 kg rabbit was minced in solution A (20 mM NaHCO3, 0.1 mM phenylmethylsulfonyl fluoride (PMSF)) and then homogenized using a Polytron PT-20, and centrifuged at 1500×g for 15 minutes. The supernatant was centrifuged at 45000×g for 15 minutes. The resulting sediment was suspended in solution B (50 mM Tris-HCl pH 7.4, 0.1 mM PMSF) and then re-centrifuged at 45000×g for 15 minutes. The sediment was again suspended in solution B and then centrifuged at 45000×g for 15 minutes. The sediment was re-suspended in solution B, and the suspension was frozen with liquid nitrogen and stored at -80° C. This series of operations was performed at 4° C. Protein contents was determined by Lowry's method.
(b) ^125 I-endothelin binding test
To 250 μl of a reaction solution (50 mM Tris-HCl, pH 7.4, 0.2% BSA (bovine serum albumin)), supplemented with 6×10^-11 M ^125 I-endothelin-1 (Amersham Japan) 50 μl of the ventricular microsomal fraction (20 μg) and a sample were added, followed by incubation at 37° C. for 90 minutes. The reaction mixture was then filtered through a GF/B glass filter (Millipore Japan), and the filter was washed with a 40-fold (12 ml) of the reaction solution. The radioactivity of the ^125 I-endothelin on the glass filter was determined using a gamma-ray counter. Nonspecific binding was defined as the amount of ^125 I-endothelin in the presence of 4×10^-7 M unlabelled endothelin-1 and was less than 8% of total binding. The specific binding was calculated as total binding minus nonspecific binding. Non-specific binding accounted for not higher than 8% of the total binding. The inhibitory rate of the compound is expressed as the concentration (IC50 M) required to cause a 50% reduction in the specific binding.

swine coronary artery = test: Inhibitory action on endothelin-1-induced constriction in swine coronary artery; assay type: cell-based; conditions: Sus scrofa, relaxation of maximum constriction induced by endothelin-1 (3×10^-9 M); for inhibition at 100 µM: compound 1 × 10^-4 M; for inhibition at 10 µM: compound 1 × 10^-5 M; for inhibition at 30 µM: compound 3 × 10^-5 M
Description: Inhibitory action on endothelin-1-induced constriction in swine coronary artery
After fat tissue removal, the swine left coronary arterial anterior descending branch (LAD) was isolated and vascular rings were prepared. These arterial rings kept at 37° C., were suspended in a 20 ml organ chamber filled with Krebs solution being aerated with 95% O2 /5% CO2 gas. Two grams of the tension was applied. After equilibration for 1 hr, 60 mMKCl was applied to condition the coronary rings. The test compound was tested for inhibition of the constriction induced by endothelin-1 (3×10^-9 M) by adding the test compound when the maximum of endothelin-1 induced constriction was reached. Activity is expressed as percent relaxation of the maximum constriction induced by endothelin-1. The developed tension of rings was reached isometrically.

Cathepsin B = test: Determination of cathepsin B inhibitory activity; assay type: biochemical; conditions: substrate Z-Phe-Arg-NH-Mec; pH 5.5; 37° C., 20 minutes
Description: Determination of cathepsin B inhibitory activity
Cathepsin B (produced by Sigma) was diluted with 100 mM sodium acetate buffer (pH 5.5) to a concentration of 30 μg/ml. To 1 μl of this enzyme dilution, 46 μl of diluent, 2 μl of 0.1M DTT and 25 μl of activator/buffer (340 mM sodium acetate, 60 mM acetic acid, 4 mM EDTA disodium salt, pH 5.5) were added. To this mixture, a 1 μl sample, diluted to 10^-3 M with dimethylsulfoxide (DMSO), and 25 μl of 20 μM Z-Phe-Arg-NH-Mec (enzyme substrate solution) were added. After the mixture was incubated at 37° C. for 20 minutes, 100 μl of a stop solution (100 mM sodium monochloroacetate, 30 mM sodium acetate, pH 4.3) was added. The reaction was carried out on a 96-well fluoropiate (produced by Labo-Systems).
After the reaction was stopped, the absorbance of free aminomethylcoumarin was determined by excitation at 365 nm and emission at 450 nm, using Fluorescence Concentration Analyzer (produced by Baxter). One μl of sample-free DMSO was added for control, and the absorbance from reaction of this control was defined as 100% activity. For samples of under 10% residual activity, further dilutions were assayed for residual activity as described above to obtain the IC50 value.

bone resorption = test: Inhibition of bone resorption (45Ca release from fetal rat forearm bones); assay type: cell-based, rat (Sprague-Dawley); conditions: 48 h, 10 μg/ml compound, two days of culture, read-out: Inhibition of Bone Resorption [45Ca released (percent ratio to control)]
Description: Inhibition of bone resorption
The inhibitory effect of compound on bone resorption was measured by the method of Rais 3 [Journal of Clinical Investigation, 44, 103-116 (1965)]. Specifically, one Sprague-Dawley rat, at 19 days of gestation, was given 50 μCi of ^45 Ca (calcium isotope, in CaCl2 solution) by subcutaneous injection. On the following day, fetal rats were aseptically taken out, both forearm bones (radius and ulna) were cut out from the body of each fetus, and connective tissue and cartilages were removed to maximum possible extent, to yield prepare bone culture samples. Each bone fragment was incubated at 37° C. for 24 hours in 0.6 ml of BGJb medium (Fitton-Jackson modification, produced by GIBCO Laboratories, United States) containing 2 mg/ml bovine serum albumin, after which it was cultured in the same medium as above but containing a 10 μg/ml compound for two more days. ^45 Ca radioactivity in the medium and ^45 Ca radioactivity in the bone were then measured, and the percent ratio of ^45 Ca released from the bone to the medium was calculated using the following equation: [formula]
For control, bone fractions from fetuses of the same litter were cultured for two days in the absence of the test compound. The mean ± standard deviation for the values from five bone fragments in each group were calculated, and their percent ratios to the control were calculated.

mice = test: Toxicity in mice (deaths); assay type: in vivo; conditions: 300 mg/kg dose
Description: Although the daily dose varies depending on the condition and weight of the patient, kind of the compound, route of administration and other factors, it is administered parenterally, specifically subcutaneously, intravenously, intramuscularly or rectally at about 0.05 to 100 mg/kg/day, preferably 0.5 to 50 mg/kg/day as an endothelin receptor antagonist, about 0.1 to 100 mg/kg/day, preferably 1 to 50 mg/kg/day as a cathepsin B inhibitor and about 1 to 200 mg/kg/day, preferably 5 to 100 mg/kg/day as a bone resorption suppressor, respectively. For use as an oral agent, it is desirable to administer it at about 0.1 to 500 mg/kg/day, preferably 0.5 to 200 mg/kg/day as an endothelin receptor antagonist, about 1 to 500 mg/kg/day, preferably 10 to 300 mg/kg/day as a cathepsin B inhibitor and about 5 to 1000 mg/kg/day, preferably 10 to 300 mg/kg/day as a bone resorption suppressor, respectively.

| Structure (SMILES) | IC50 (endothelin receptor) | activity at 10 µg/mL (bone resorption) | other results |
| --- | --- | --- | --- |
| Cc1ccc(S(=O)(=O)N=c2nc3cc4c(cn3s2)CCCC4)cc1 [Example 12] | 6.5 µM | – | inhibition at 100 µM (swine coronary artery): 62%; inhibition at 10 µM (swine coronary artery): 14% |
| Cc1ccccc1S(=O)(=O)N=c1nc2cc3c(cn2s1)CCCC3 [Example 13] | 5.9 µM | – | inhibition at 100 µM (swine coronary artery): 78%; inhibition at 10 µM (swine coronary artery): 56% |
| O=S(=O)(N=c1nc2cc3c(cn2s1)CCCC3)c1ccccc1 [Example 14] | 8.8 µM | – | – |
| Cc1ccc(S(=O)(=O)N=c2nc3sc(CC4CCCCC4)c(-c4ccc5c(c4)CCCC5)n3s2)cc1 [Example 25] | – | 72% | IC50 (Cathepsin B): 1.2 µM |
| CCNC(=O)Cc1sc2nc(=NS(=O)(=O)c3ccc(C)cc3)sn2c1-c1ccc2c(c1)CCCC2 [Example 31] | – | – | IC50 (Cathepsin B): 2.9 µM |
| Cc1ccc(NC(=O)Cc2sc3nc(=NS(=O)(=O)c4ccc(C)cc4)sn3c2-c2ccc3c(c2)CCCC3)cc1 [Example 34] | – | 75% | IC50 (Cathepsin B): 9.3 µM |
| CCc1sc2nc(=NS(=O)(=O)c3ccc(C)cc3)sn2c1CC(=O)NCC1CCCCC1 [Example 65] | – | 74% | – |
| Cc1ccccc1S(=O)(=O)N=c1nc2sc(C)c(-c3ccc(C4CCCCC4)cc3)n2s1 [Example 73] | 7.3 µM | – | – |
| CCS(=O)(=O)N=c1nc2sc(C)c(-c3ccc(C4CCCCC4)cc3)n2s1 [Example 82] | 7.5 µM | – | – |
| Cc1sc2nc(=NS(=O)(=O)Cc3ccccc3)sn2c1-c1ccc(C2CCCCC2)cc1 [Example 83] | 6 µM | – | deaths (mice): no deaths occurred |
| CCNC(=O)CCc1sc2nc(=NS(=O)(=O)c3ccc(C)cc3)sn2c1-c1ccc2c(c1)CCCC2 [Example 94] | – | 76% | – |
| CCOC(=O)CCC(NC(=O)CCc1sc2nc(=NS(=O)(=O)c3ccc(C)cc3)sn2c1-c1ccc2c(c1)CCCC2)C(=O)OCC (stereo not shown) [Example 96] | – | 81% | IC50 (Cathepsin B): 1.9 µM |
| CCOC(=O)CCCc1sc2nc(=NS(=O)(=O)c3ccc(C)cc3)sn2c1-c1ccc(C2CCCCC2)cc1 [Example 98] | – | 87% | IC50 (Cathepsin B): 3.5 µM |
| CCc1sc2nc(=NS(=O)(=O)c3ccc(C)cc3)sn2c1-c1ccc(C2CCCCC2)cc1 [Example 99] | 2.1 µM | – | – |
| CCCCOc1ccc(-c2c(CC)sc3nc(=NS(=O)(=O)c4ccc(C)cc4)sn23)cc1 [Example 104] | 2.7 µM | – | – |
| CCc1sc2nc(=NS(=O)(=O)c3ccc(C)cc3)sn2c1-c1cn(C)c2ccccc12 [Example 106] | 4.2 µM | – | – |
| Cc1sc2nc(=NS(=O)(=O)c3cccnc3)sn2c1-c1ccc(C2CCCCC2)cc1 [Example 108] | – | 85% | IC50 (Cathepsin B): 1.1 µM |
| CCCS(=O)(=O)N=c1nc2sc(C)c(-c3ccc(C4CCCCC4)cc3)n2s1 [Example 111] | 6.1 µM | 75% | inhibition at 10 µM (swine coronary artery): 40%; inhibition at 30 µM (swine coronary artery): 78% |
| CCCCCCCCS(=O)(=O)N=c1nc2sc(C)c(-c3ccc(C4CCCCC4)cc3)n2s1 [Example 112] | 5.2 µM | – | inhibition at 10 µM (swine coronary artery): 35%; inhibition at 30 µM (swine coronary artery): 83% |
| CCc1sc2nc(=NS(=O)(=O)c3ccc(F)cc3)sn2c1-c1ccc(C2CCCCC2)cc1 [Example 114] | 3.8 µM | – | inhibition at 10 µM (swine coronary artery): 44%; inhibition at 30 µM (swine coronary artery): 75% |
| CCc1sc2nc(=NS(=O)(=O)CC(C)(C)CO)sn2c1-c1ccc(C2CCCCC2)cc1 [Example 115] | – | 85% | – |

Now from value to molecule, other results behind:

| IC50 (endothelin receptor) | Structure (SMILES) | activity at 10 µg/mL (bone resorption) | other results |
| --- | --- | --- | --- |
| 3 µM | CCc1sc2nc(=NS(=O)(=O)c3ccc(C)cc3)sn2c1-c1ccc2c(c1)CCCC2 [Example 20, 5-ethyl-2-(4-methylphenyl)sulfonylimino-6-(5,6,7,8-tetrahydro-2-naphthyl)-2H-thiazolo[3,2-b][1,2,4]thiadiazole] | – | inhibition at 100 µM (swine coronary artery): 68%; inhibition at 10 µM (swine coronary artery): 11% |
| 2.5 µM | CCCc1sc2nc(=NS(=O)(=O)c3ccc(C)cc3)sn2c1-c1ccc2c(c1)CCCC2 [Example 23] | – | – |
| 2.5 µM | Cc1ccc(S(=O)(=O)N=c2nc3sc(C(C)C)c(-c4ccc5c(c4)CCCC5)n3s2)cc1 [Example 24] | – | inhibition at 100 µM (swine coronary artery): 99%; inhibition at 10 µM (swine coronary artery): 37% |
| 4 µM | CCOC(=O)Cc1sc2nc(=NS(=O)(=O)c3ccc(C)cc3)sn2c1-c1ccc2c(c1)CCCC2 [Example 26] | – | – |
